In US12383511B2, “Osteogenic agents and uses thereof” (GoldPorp Pharma Limited, priority 2022, dated 2025):

Legend:
Format in all cases: cell-based
MC3T3-E1 osteoblasts [1] = assay: Alkaline phosphatase (ALP) activity assay in MC3T3-E1 osteoblasts; conditions: for effect of antagonist on F4-induced ALP activity: 5 μM F4
Description: MC3T3-E1 (passage 4-10) was maintained in Minimal Essential Media (MEM) supplemented with 10% FBS, 1 mM Sodium Pyruvate and 1% 100 ug/ml penicillin-streptomycin (100 U/ml). All reagents are from GIBCO Life Technologies.
MC3T3-E1 cells were seeded at 1×10^5 cells per well in 24-well plate. […] After treatment, cells were washed twice with PBS and lysed with buffer contains 50 mM Tris pH7.4 and 0.1% Triton X-100. After 3 freeze-thaw cycles, 40 ul of cell lysate was mixed with 50 ul of 2× Assay buffer (2-Amino-2methyl-1-propanol, pH 10.4 with 4 mM MgCl2) and 10 ul of 0.1M 4-Nitrophenyl phosphate. Incubated in 37° C. and recorded at OD410.

[2] = test system: MC3T3-E1 osteoblast cells; assay: Osteoblast mineralization assay (Alizarin Red staining)
Description: MC3T3-E1 cells were seeded at 1×10^5 cells per well in 24-well plates. […] […] Cells were washed twice with PBS and fixed with 10% formalin for 1 hour. Fixed cell was washed twice with distilled water and stained with 2% Alizarin Red S solution (pH 4.1) in the dark for 1 hour. Stain solution was removed and washed 4 times with distilled water.

MC3T3-E1 osteoblast = assay: mRNA expression of osteogenesis-related molecules by real-time PCR; conditions: for AFT6 mRNA expression / ALP mRNA expression / ATF3 mRNA expression / Axin2 mRNA expression / BMP2 mRNA expression / BMP7 mRNA expression / BSP mRNA expression / COL1A1 mRNA expression / Fzd1 mRNA expression / Fzd2 mRNA expression / Fzd5 mRNA expression / LRP5 mRNA expression / OCN mRNA expression / OPN mRNA expression / OSN mRNA expression / OSX mRNA expression / Runx2 mRNA expression / VDR mRNA expression / Wnt3A mRNA expression / Wnt5A mRNA expression / Wnt7B mRNA expression / Wnt11 mRNA expression: BMP2 30 ng/ml, ASC 400 μM + β-GP 5 mM, F1 5 μM, F4 5 μM, relative to DMSO control, normalized to GAPDH
Description: MC3T3-E1 cells were seeded in 6-well plates at 1×10^5 cells per well for 2 days. […] Total RNA was isolated at Day 2 and Day 4 with Trizol® reagent, 1 ug of total RNA was subjected to reverse transcription/cDNA synthesis using Superscript III first-strand synthesis system (Life Technologies).
Equal amount of cDNA generated from reverse transcription reactions were subjected to real-time PCR with SYBR® Green PCR Master Mix and primers for osteoblast differentiation markers. Primers used included: […]
Osteoblast differentiation markers genes expression were analyzed by ABI prism 7900HT Sequence Detection System and the relative level of transcript expression was quantified by ΔΔCt method.

MC3T3-E1 osteoblasts [3] = assay: Cell viability / cell number NBB assay
Description: MC3T3-E1 cells were seeded at 7×10^3 cells/well in 96-well plates for 2 days. […] After treatment, cells were fixed with 3% formalin and stained with NBB solution (0.05% NBB with 0.1 M sodium acetate and 9% acetic acid) at room temperature. Twenty four hours later, staining solution was removed and distilled water was added to remove free dye. Then, 100 ul of 50 mM […] was added to dissolve bound dye and recorded absorbance at 590 nm.

[4] = test system: estrogen responsive gene elements (ERE); assay: pERE-Luc reporter gene assay in MC3T3-E1; conditions: ICI182780 10 nM and 1 μM
Description: MC3T3-E1 were seeded at 9.0×10^4 per well in 24-well plates. Twenty-four hours after cell seeding, cells were transiently transfected with 500 ng pERE-Luc (contains three repeats of estrogen-response element) by lipofectamine 2000 (Life Technologies) according to manufacturers' instruction (lipofectamine:DNA=3:1).

## C=Cc1cc(O)c(C)c2c1-c1ccc(O)c(C)c1CC2 [F1]
MC3T3-E1 osteoblasts [1]; 0.5, 1.5, 5 μM
  cellular alkaline phosphatase (ALP) enzyme activities: increased the cellular alkaline phosphatase (ALP) enzyme activities in a concentration-dependent manner
MC3T3-E1 osteoblasts [1]; at 24 and 48 h after treatment
  concentration at which increases in ALP activities were already evident: 0.5 µM
  concentration of maximum increase in ALP activities: 5 µM
[2]; 5 μM compared with […]
  calcium deposition at higher vs lower concentration: More calcium deposition
[2]; […] or 5 μM in osteoblast mineralization medium, day 14, compared with control
  Alizarin Red staining (calcium deposition) in cell layers: significantly enhanced
MC3T3-E1 osteoblast; D 2
  AFT6 mRNA expression: 1.5 fold
  ALP mRNA expression: 1.8 fold
  ATF3 mRNA expression: 0.8 fold
  Axin2 mRNA expression: 0.9 fold
  BMP2 mRNA expression: 1.2 fold
  BMP7 mRNA expression: 1.6 fold
  BSP mRNA expression: 2.1 fold
  COL1A1 mRNA expression: 0.7 fold
  Fzd1 mRNA expression: 3.0 fold
  Fzd2 mRNA expression: 1.0 fold
  Fzd5 mRNA expression: 0.8 fold
  LRP5 mRNA expression: 0.8 fold
  OCN mRNA expression: 29 fold
  OPN mRNA expression: 1.4 fold
  OSN mRNA expression: 0.7 fold
  OSX mRNA expression: 0.6 fold
  Runx2 mRNA expression: 1.1 fold
  VDR mRNA expression: 0.9 fold
  Wnt3A mRNA expression: 0.9 fold
  Wnt5A mRNA expression: 0.8 fold
  Wnt7B mRNA expression: 0.8 fold
  Wnt11 mRNA expression: 1.1 fold
MC3T3-E1 osteoblast; D 4
  AFT6 mRNA expression: 1.0 fold
  ALP mRNA expression: 2.9 fold
  ATF3 mRNA expression: 1.0 fold
  Axin2 mRNA expression: 1.0 fold
  BMP2 mRNA expression: 0.7 fold
  BMP7 mRNA expression: 1.1 fold
  BSP mRNA expression: 1.3 fold
  COL1A1 mRNA expression: 0.9 fold
  Fzd1 mRNA expression: 2.6 fold
  Fzd2 mRNA expression: 0.7 fold
  Fzd5 mRNA expression: 0.6 fold
  LRP5 mRNA expression: 0.6 fold
  OCN mRNA expression: 11 fold
  OPN mRNA expression: 1.8 fold
  OSN mRNA expression: 1.6 fold
  OSX mRNA expression: 0.5 fold
  Runx2 mRNA expression: 1.2 fold
  VDR mRNA expression: 0.5 fold
  Wnt3A mRNA expression: 2.8 fold
  Wnt5A mRNA expression: 0.6 fold
  Wnt7B mRNA expression: 1.1 fold
  Wnt11 mRNA expression: 0.6 fold
MC3T3-E1 osteoblast; treatment of cells with F1 or F4
  levels of osteocalcin (OCN) and osteoportin (OPN) mRNA: markedly increased
MC3T3-E1 osteoblasts [3]; 0.625 to 10 μM
  cell number (NBB assay): slightly increased the cell number
MC3T3-E1 osteoblasts [3]; higher concentrations (25-100 μM)
  cell viability (NBB assay): significant loss of cell viability

## C[C@]12CC[C@@H]3c4ccc(O)cc4C[C@@H](CCCCCCCCC[S+]([O-])CCCC(F)(F)C(F)(F)F)[C@H]3[C@@H]1CC[C@@H]2O (some centres unmarked) [ICI182780, reference compound]
MC3T3-E1 osteoblasts [1]; day 4
  effect of antagonist on F4-induced ALP activity: no effect
MC3T3-E1 osteoblasts [1]; day 7
  effect of antagonist on F4-induced ALP activity: inhibited
[4]; 5 μM F4
  effect of antagonist on F4-stimulated ERE promoter activity: could be inhibited
[4]
  effect of antagonist on estradiol-stimulated ERE-driven promoter activity: inhibited
